Source: PubChem BioAssay AID2060900 (Molecular Pharmacology Branch, DTP, NCI, 2025)
“And” between values parts separate entries of the source, which are not always exact repeats. Identical values can stand only once.

Tested on: 521955-158-R2-J5-PDC complex spheroids, viability
Experiment: Anticancer human tumor 521955-158-R2-J5-PDC patient-derived pancreatic carcinoma cell line growth inhibition [RAS]
Details: for viability, T/C: stronger effect = lower value
Excerpt: RAS pathway inhibitors in Combinations in Complex Spheroids
A high-throughput screen of multi-cell type tumor spheroids was designed to identify active combinations of RAS pathway inhibitors and targeted small molecules. Complex spheroids include a stromal component modeled by human endothelial cells (HUVEC) and fibroblasts modeled by human mesenchymal stem cells (MSCs). The concentration ranges selected for each drug and investigational agent were based upon clinically achievable concentrations if the clinical Cmax of the agent was known.
Compounds. The drugs and investigational agents: abemaciclib (NSC768073), cobimetinib (NSC768068), divarasib (GDC6063, NSC841802), docetaxel (NSC628503), GDC-1971 (RLY-1971, NSC841576), gemcitabine (NSC613327), inavolisib (NSC800729), ipatasertib (NSC767898), KB-0742 (NSC834161), MRTX-1133 (NSC836407), osimertinib (NSC779217), RMC-4630 (NSC839698), RMC-6236 (NSC851965), RMC-6291 (NSC852671), Ro-3306 (NSC812927), sapanisertib (NSC764658), SN-38 (NSC673596), staurosporine (NSC755774), SY5609 (NSC837396), and tovorafenib (DAY101, NSC766906), were obtained from the National Cancer Institute (NCI) Developmental Therapeutics Program Chemical Repository. The FDA-approved anticancer drug set is available from the NCI Developmental Therapeutics Program. […] The stock solutions were prepared in dimethyl sulfoxide (DMSO, Sigma-Aldrich, St. Louis, MO, cat. D2650) at 800-fold the tested concentration and stored at -70 degrees C prior to their use. All drugs and investigational agents were tested over a range starting from a high concentration at or near the clinical Cmax and decreasing in half-log increments. If the clinical Cmax for an agent had not been determined, the highest concentration tested was 10 microM.
Cell Culture. All cells were maintained in an incubator at 37 degrees C and 5% CO2 with 95% humidity. The PDC lines were cultured according to standard operating procedures established by the NCI PDMR. All PDCs were thawed and cultured in Matrigel-coated flasks prepared with a working solution of 1X Ham's F-12 nutrient mix, without supplementation (Invitrogen, Waltham, MA, cat. 11765054), 100 U/mL penicillin-streptomycin (Invitrogen, cat. 15140122), and 2.5% Matrigel (Corning Inc., Corning, NY, cat. 354248) for the first three passages. The 362531-283-R-J2-PDC and 782815-120-R-J1-PDC lines were cultured in 6C/Colon 1B media, which includes advanced DMEM/F-12 (Thermo Fisher Scientific, cat. 12634028), 10 mM HEPES (Thermo Fisher Scientific, cat. 15630080), 1X GlutaMAX supplement (Thermo Fisher Scientific, cat. 35050061), 0.1 mg/mL primocin (InvivoGen, San Diego, CA, cat. ant-pm-2), 10% defined fetal bovine serum, heat inactivated (HyClone Laboratories Inc., Logan, UT, cat. SH30070.03HI), 50% L-WRN conditioned media (ATCC, cat. CRL-3276), 1.25 mM N-Acetyl-L-cysteine (Sigma-Aldrich, cat. A9165), 10 mM nicotinamide (Sigma-Aldrich, cat. N0636), 1X B-27 supplement (Thermo Fisher Scientific, cat. 17504044), 1X N-2 supplement (Thermo Fisher Scientific, cat. 17502048), 50 ng/mL human EGF (Thermo Fisher Scientific, cat. PHG0311), and 10 microM Y-27632 dihydrochloride (Tocris Bioscience, cat. 1254). The K12877-001-R-J1-PDC line was cultured in 6I media, which includes all 6C/Colon 1B media plus 10 ng/mL human FGF-10 (PeproTech, cat. 100-26), 1 ng/mL human FGF-2 (PeproTech, cat. 100-18B), 1 µM prostaglandin E2 (Tocris Bioscience, cat. 2296), […] hydrocortisone (Sigma-Aldrich, cat. H4001), and […] bovine insulin (Sigma-Aldrich, cat. I6634). The K86415-001-R-J1-PDC line was cultured in 6D media, which includes all 6C/Colon 1B media components minus the L-WRN conditioned media. The 485176-168-R4-J1-PDC was cultured in PANC media, which includes all 6C/Colon 1B media plus 100 ng/mL human FGF-10 (PeproTech, cat. 100-26), 500 nM SB-431542 (Selleckchem, cat. S1067), and 10 nM gastrin (Tocris Bioscience, cat. 3006). […]

[1] = compound alone, run of 05/20/2024
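Also: compound exposure lasted seven days before the viability read.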
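For viability, T/C in this document: spheroids also contain HUVEC endothelial cells and mesenchymal stem cells as stroma.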

| IC50 (curve of compound) | Compound | viability, T/C (compound 0.0316 µM) | viability, T/C (compound 0.1 µM) | viability, T/C (compound 0.316 µM) | viability, T/C (compound 1 µM) | viability, T/C (compound 3.16 µM) | viability, T/C (compound 10 µM) | also measured |
| --- | --- | --- | --- | --- | --- | --- | --- | --- |
| 965 nM and 466 nM and > 1000 nM | C=CC(=O)Nc1cc(Nc2nccc(-c3cn(C)c4ccccc34)n2)c(OC)cc1N(C)CCN(C)C | 94.7% [middle of 4 runs] | 79.1% [middle of 4 runs] |  |  |  |  | viability, T/C (compound 0.00316 µM): 101% [middle of 4 runs] |
| < 31.6 nM | CC(=O)OC12COC1CC(O)C1(C)C(=O)C(O)C3=C(C)C(OC(=O)C(O)C(NC(=O)OC(C)(C)C)c4ccccc4)CC(O)(C(OC(=O)c4ccccc4)C21)C3(C)C (stereo not given) | 38.4% [middle of 4 runs] |  | 27.9% [middle of 4 runs] | 35% [middle of 4 runs] | 42.6% [middle of 4 runs] |  |  |
| > 10000 nM | CC(C)NCC(C(=O)N1CCN(c2ncnc3c2C(C)CC3O)CC1)c1ccc(Cl)cc1 (stereo not given) | 97.9% [middle of 4 runs] | 99.3% [middle of 4 runs] | 96% [middle of 4 runs] | 60.5% [middle of 4 runs] | 75.7% [middle of 4 runs] | 72.5% [middle of 4 runs] |  |
| 21.3 nM [middle of 4 runs] | CC(C)n1nc(-c2ccc3oc(N)nc3c2)c2c(N)ncnc21 | 44.3% [middle of 4 runs] | 37% [middle of 4 runs] |  |  |  |  | viability, T/C (compound 0.000316 µM): 94.1% [middle of 4 runs]; viability, T/C (compound 0.001 µM): 101% [middle of 4 runs]; viability, T/C (compound 0.00316 µM): 96.2% [middle of 4 runs]; viability, T/C (compound 0.01 µM): 65.3% [middle of 4 runs] |
| > 1000 nM | CCN1CCN(Cc2ccc(Nc3ncc(F)c(-c4cc(F)c5nc(C)n(C(C)C)c5c4)n3)nc2)CC1 | 87% [middle of 4 runs] | 81.5% [middle of 4 runs] |  |  |  |  | viability, T/C (compound 0.00316 µM): 102% [middle of 4 runs] |
| 2.64 nM [middle of 4 runs] | CCc1c2c(nc3ccc(O)cc13)-c1cc3c(c(=O)n1C2)COC(=O)[C@]3(O)CC |  |  |  |  |  |  | viability, T/C (compound 0.000949 µM): 82.5% [middle of 4 runs]; viability, T/C (compound 0.003 µM): 44.6% [middle of 4 runs]; viability, T/C (compound 0.00949 µM): 19.9% [middle of 4 runs]; viability, T/C (compound 0.03 µM): 10.1% [middle of 4 runs]; viability, T/C (compound 0.0949 µM): 6.59% [middle of 4 runs]; viability, T/C (compound 0.3 µM): 6.5% [middle of 4 runs] |
| > 10000 nM and 5730 nM | C[C@@H](NC(=O)c1ncnc(N)c1Cl)c1ncc(C(=O)Nc2cc(C(F)(F)F)c(Cl)cn2)s1 |  |  |  |  |  | 60.9% [middle of 4 runs] |  |
| > 10000 nM and 1720 nM | NC1c2ccccc2OC12CCN(c1cnc3c(N4CCCc5ncccc54)n[nH]c3n1)CC2 (stereo not given) | 67.5% [middle of 4 runs] | 58.8% [middle of 4 runs] | 55.2% [middle of 4 runs] | 53.2% [middle of 4 runs] | 54.8% [middle of 4 runs] | 61.6% [middle of 4 runs] |  |

The remaining lines, values behind:

| Compound | IC50 (curve of compound) | viability, T/C (compound 0.0316 µM) | viability, T/C (compound 0.1 µM) | viability, T/C (compound 0.316 µM) | viability, T/C (compound 1 µM) | viability, T/C (compound 3.16 µM) | viability, T/C (compound 10 µM) | also measured |
| --- | --- | --- | --- | --- | --- | --- | --- | --- |
| C#Cc1c(F)ccc2cc(O)cc(-c3ncc4c(N5CC6CCC(C5)N6)nc(OCC56CCCN5CC(F)C6)nc4c3F)c12 (stereo not given) |  | 64.5% [middle of 8 runs] | 57.3% [middle of 8 runs] | 53.9% [middle of 8 runs] | 51.1% [middle of 8 runs] | 45.4% [middle of 8 runs] | 35.1% [middle of 8 runs] |  |
| CC(Nc1ccc2c(c1)OCCn1cc(N3C(=O)OCC3C(F)F)nc1-2)C(N)=O (stereo not given) | 136 nM [middle of 4 runs] |  | 57.5% [middle of 4 runs] | 41.1% [middle of 4 runs] | 31% [middle of 4 runs] |  | 23.5% [middle of 4 runs] |  |
| CC1(C)CCC(Nc2ncc(C(F)(F)F)c(-c3c[nH]c4c(P(C)(C)=O)c(C#N)ccc34)n2)CN1 (stereo not given) |  |  |  |  |  |  |  | viability, T/C (compound 0.000949 µM): 104% [middle of 4 runs]; viability, T/C (compound 0.003 µM): 74.5% [middle of 4 runs]; viability, T/C (compound 0.00949 µM): 57.2% [middle of 4 runs]; viability, T/C (compound 0.03 µM): 48.7% [middle of 4 runs]; viability, T/C (compound 0.0949 µM): 52.8% [middle of 4 runs] |
| CC1(O)CCCC1n1c(=O)c(C(F)F)cc2cnc(NC3CCN(S(C)(=O)=O)CC3)nc21 (stereo not given) | 5.85 µM [middle of 4 runs] | 92.5% [middle of 4 runs] | 76.6% [middle of 4 runs] |  | 75.7% [middle of 4 runs] | 118% [middle of 4 runs] | 14.9% [middle of 4 runs] |  |
| CCC(CC)c1cc(NC2CCC(N)C2)n2nccc2n1 (stereo not given) | 1.97 µM [middle of 4 runs] | 110% [middle of 4 runs] | 91.2% [middle of 4 runs] | 122% [middle of 4 runs] | 111% [middle of 4 runs] | 9.87% [middle of 4 runs] | 10.2% [middle of 4 runs] |  |
| CCn1c(-c2cc(N3CCN(C)CC3)cnc2C(C)OC)c2c3cc(ccc31)-c1csc(n1)CC(NC(=O)C1CC1C)C(=O)N1CCCC(N1)C(=O)OCC(C)(C)C2 (stereo not given) |  |  |  |  |  |  |  | viability, T/C (compound 0.000949 µM): 46.5% [middle of 8 runs]; viability, T/C (compound 0.003 µM): 40.6% [middle of 8 runs]; viability, T/C (compound 0.00949 µM): 37.5% [middle of 8 runs]; viability, T/C (compound 0.03 µM): 21.3% [middle of 8 runs]; viability, T/C (compound 0.0949 µM): 12.8% [middle of 8 runs]; viability, T/C (compound 0.3 µM): 10.2% [middle of 8 runs]; IC50 [1]: < 0.949 nM and 1.04 nM |
| CCn1c(-c2cccnc2C(C)OC)c2c3cc(ccc31)N1CCOC(CC(NC(=O)C(C(C)C)N(C)C(=O)C3(F)CCN(C(=O)C#CC(C)(C)N(C)C)CC3)C(=O)N3CCCC(N3)C(=O)OCC(C)(C)C2)C1 (stereo not given) |  |  |  |  |  |  |  | viability, T/C (compound 0.000949 µM): 101% [middle of 8 runs]; viability, T/C (compound 0.003 µM): 101% [middle of 8 runs]; viability, T/C (compound 0.03 µM): 94.8% [middle of 8 runs]; viability, T/C (compound 0.3 µM): 77.3% [middle of 8 runs]; IC50 [1]: > 300 nM |
| Cc1nc(N2CCC3(CC2)COC(C)C3N)c(CO)nc1Sc1ccnc(N)c1Cl (stereo not given) | > 10000 nM | 85.6% [middle of 4 runs] | 71.7% [middle of 4 runs] | 69.2% [middle of 4 runs] | 67.1% [middle of 4 runs] | 67% [middle of 4 runs] | 57% and 57.9% (2×) and 51.2% |  |
| Nc1ccn(C2OC(CO)C(O)C2(F)F)c(=O)n1 (stereo not given) | 183 nM [middle of 4 runs] | 79.1% [middle of 4 runs] | 72.9% [middle of 4 runs] | 36.5% [middle of 4 runs] | 16.2% [middle of 4 runs] |  |  | viability, T/C (compound 0.00316 µM): 101% [middle of 4 runs]; viability, T/C (compound 0.01 µM): 79% [middle of 4 runs] |
| O=C(c1ccc(F)c(F)c1Nc1ccc(I)cc1F)N1CC(O)([C@@H]2CCCCN2)C1 | 40.1 nM [middle of 4 runs] | 51.7% [middle of 4 runs] | 42.8% [middle of 4 runs] | 33.9% [middle of 4 runs] | 23.6% [middle of 4 runs] |  |  | viability, T/C (compound 0.00316 µM): 82% [middle of 4 runs]; viability, T/C (compound 0.01 µM): 71% [middle of 4 runs] |
